# pIC50: −log10 of the molar value. Calls of active or inactive are those of the source. The calls are words filed in the database; no cut-off is given here.
# Key:
# [1] = Antitumor activity against patient-derived breast cancer organoid assessed as reduction in cell viability incubated for 120 hrs by CellTiter-Glo 3D assay; assay type: functional, tissue-based; conditions: Homo sapiens
# Homo sapiens = species: Homo sapiens; assay: Antitumor activity against patient-derived breast cancer organoid assessed as phenotypic change at 5 uM incubated for 120 hrs by bright-field imaging microscopic analysis; assay type: functional, tissue-based
# MDA-MB-231 [2] = assay: Induction of apoptosis in human MDA-MB-231 cells assessed as necrotic cells at 33.3 nM incubated for 48 hrs by Annexin V-PE staining based flow cytometric analysis (reference value: 2.64 to 3.23%); assay type: functional
# MDA-MB-231 [3] = assay: Induction of cell cycle arrest in human MDA-MB-231 cells assessed as accumulation of cell at G2/M phase at 100 nM incubated for 24 hrs by PI staining based flow cytometric analysis (reference value: 24.34 to 24.44%); assay type: functional
# MDA-MB-453 = assay: Antiproliferative activity against human MDA-MB-453 cells assessed as inhibition of cell growth incubated for 72 hrs by CCK8 assay; assay type: functional, cell-based; conditions: MDA-MB-453, 72 h
# MDA-MB-231 [4] = assay: Inhibition of cell invasion in human MDA-MB-231 cells at 3.7 to 100 nM incubated for 18 hrs by transwell assay; assay type: functional, cell-based; conditions: dose 3.7-100 nM
# MDA-MB-231 [5] = assay: Induction of cell cycle arrest in human MDA-MB-231 cells assessed as G0/G1 phase cells at 300 nM incubated for 24 hrs by PI staining based flow cytometric analysis (reference value: 63.32 to 64.94%); assay type: functional
# MDA-MB-231 [6] = assay: Induction of cell cycle arrest in human MDA-MB-231 cells assessed as accumulation of cell at G2/M phase at 300 nM incubated for 24 hrs by PI staining based flow cytometric analysis (reference value: 24.34 to 24.44%); assay type: functional
# MDA-MB-231 [7] = assay: Induction of cell cycle arrest in human MDA-MB-231 cells assessed as G0/G1 phase cells at 33.3 nM incubated for 24 hrs by PI staining based flow cytometric analysis (reference value: 63.32 to 64.94%); assay type: functional
# MDA-MB-231 [8] = assay: Induction of cell cycle arrest in human MDA-MB-231 cells assessed as S phase cells at 100 nM incubated for 24 hrs by PI staining based flow cytometric analysis (reference value: 9.64 to 10.79%); assay type: functional
# MDA-MB-231 [9] = assay: Inhibition of migration in human MDA-MB-231 cells at 3.7 to 100 nM incubated for 18 hrs by transwell assay; assay type: functional, cell-based; conditions: dose 3.7-100 nM
# MDA-MB-231 [10] = assay: Induction of apoptosis in human MDA-MB-231 cells assessed as viable cells at 33.3 nM incubated for 48 hrs by Annexin V-PE staining based flow cytometric analysis (reference value: 92.59 to 92.71%); assay type: functional; conditions: read-out: Activity
# MDA-MB-231 [11] = assay: Induction of apoptosis in human MDA-MB-231 cells assessed as necrotic cells at 300 nM incubated for 48 hrs by Annexin V-PE staining based flow cytometric analysis (reference value: 2.64 to 3.23%); assay type: functional
# MDA-MB-231 [12] = assay: Induction of cell cycle arrest in human MDA-MB-231 cells assessed as decrease in CDK2 level at 100 to 300 nM by Western blot analysis; assay type: functional, cell-based; conditions: dose 100-300 nM
# MDA-MB-231 [13] = assay: Induction of cell cycle arrest in human MDA-MB-231 cells assessed as decrease in cyclin B1 level at 100 to 300 nM by Western blot analysis; assay type: functional, cell-based; conditions: dose 100-300 nM
# MDA-MB-231 [14] = assay: Induction of apoptosis in human MDA-MB-231 cells assessed as downregulation of caspase-9 expression at 100 to 300 nM by Western blot analysis; assay type: functional, cell-based; conditions: dose 100-300 nM
# MDA-MB-231 [15] = assay: Induction of apoptosis in human MDA-MB-231 cells assessed as early apoptotic cells at 100 nM incubated for 48 hrs by Annexin V-PE staining based flow cytometric analysis (reference value: 3.95 to 3.74%); assay type: functional
# MDA-MB-231 [16] = assay: Induction of apoptosis in human MDA-MB-231 cells assessed as late apoptotic cells at 100 nM incubated for 48 hrs by Annexin V-PE staining based flow cytometric analysis (reference value: 0.32 to 0.82%); assay type: functional
# MDA-MB-231 [17] = assay: Antiproliferative activity against human MDA-MB-231 cells expressing AXL assessed as inhibition of cell growth incubated for 72 hrs by CCK8 assay; assay type: functional, cell-based; conditions: MDA-MB-231, 72 h
# MDA-MB-231 [18] = assay: Induction of apoptosis in human MDA-MB-231 cells assessed as early apoptotic cells at 300 nM incubated for 48 hrs by Annexin V-PE staining based flow cytometric analysis (reference value: 3.95 to 3.74%); assay type: functional
# MDA-MB-231 [19] = assay: Induction of apoptosis in human MDA-MB-231 cells assessed as upregulation of cleaved PARP expression at 100 to 300 nM by Western blot analysis; assay type: functional, cell-based; conditions: dose 100-300 nM
# MDA-MB-231 [20] = assay: Induction of apoptosis in human MDA-MB-231 cells assessed as viable cells at 100 nM incubated for 48 hrs by Annexin V-PE staining based flow cytometric analysis (reference value: 92.59 to 92.71%); assay type: functional; conditions: read-out: Activity
# MDA-MB-231 [21] = assay: Induction of apoptosis in human MDA-MB-231 cells assessed as necrotic cells at 100 nM incubated for 48 hrs by Annexin V-PE staining based flow cytometric analysis (reference value: 2.64 to 3.23%); assay type: functional
# MDA-MB-436 = assay: Antiproliferative activity against human MDA-MB-436 cells expressing AXL assessed as inhibition of cell growth incubated for 72 hrs by CCK8 assay; assay type: functional, cell-based; conditions: MDA-MB-436, 72 h
# [22] = target: Serine/threonine-protein kinase AKT (Homo sapiens) (UniProt P31751+Q9Y243+P31749); assay: Inhibition of AKT phosphorylation in human MDA-MB-231 at 1.2 to 100 nM incubated for 18 hrs by Western blot analysis; assay type: cell-based; conditions: dose 1.2-100 nM
# Serine/threonine-protein kinase AKT (Homo sapiens), sequence (P31749 whole entry, looked up): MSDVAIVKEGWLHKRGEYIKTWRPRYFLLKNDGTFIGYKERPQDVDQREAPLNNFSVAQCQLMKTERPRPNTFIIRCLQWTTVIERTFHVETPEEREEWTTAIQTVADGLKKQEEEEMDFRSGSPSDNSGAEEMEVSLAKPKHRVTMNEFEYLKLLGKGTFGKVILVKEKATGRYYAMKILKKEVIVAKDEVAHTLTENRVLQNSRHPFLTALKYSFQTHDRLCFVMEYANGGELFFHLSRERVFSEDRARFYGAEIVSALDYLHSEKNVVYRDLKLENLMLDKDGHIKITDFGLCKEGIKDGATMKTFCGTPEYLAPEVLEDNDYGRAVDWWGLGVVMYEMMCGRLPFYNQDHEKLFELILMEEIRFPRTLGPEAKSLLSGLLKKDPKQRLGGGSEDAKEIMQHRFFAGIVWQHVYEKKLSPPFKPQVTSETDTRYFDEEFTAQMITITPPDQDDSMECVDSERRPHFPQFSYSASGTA
# Serine/threonine-protein kinase AKT (Homo sapiens), sequence (P31751 whole entry, looked up): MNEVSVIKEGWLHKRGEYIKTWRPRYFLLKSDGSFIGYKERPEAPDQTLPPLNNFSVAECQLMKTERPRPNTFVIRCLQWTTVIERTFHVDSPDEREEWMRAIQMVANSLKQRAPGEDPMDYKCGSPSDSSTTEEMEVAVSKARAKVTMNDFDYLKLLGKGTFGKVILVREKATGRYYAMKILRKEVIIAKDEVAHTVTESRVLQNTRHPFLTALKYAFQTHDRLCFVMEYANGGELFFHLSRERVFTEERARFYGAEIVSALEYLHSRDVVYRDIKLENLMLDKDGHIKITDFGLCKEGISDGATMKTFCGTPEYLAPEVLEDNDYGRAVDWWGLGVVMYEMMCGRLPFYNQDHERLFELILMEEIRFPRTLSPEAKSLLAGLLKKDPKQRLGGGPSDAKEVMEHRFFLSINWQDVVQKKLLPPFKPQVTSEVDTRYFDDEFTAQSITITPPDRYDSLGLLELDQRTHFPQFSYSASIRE
# Serine/threonine-protein kinase AKT (Homo sapiens), sequence (Q9Y243 whole entry, looked up): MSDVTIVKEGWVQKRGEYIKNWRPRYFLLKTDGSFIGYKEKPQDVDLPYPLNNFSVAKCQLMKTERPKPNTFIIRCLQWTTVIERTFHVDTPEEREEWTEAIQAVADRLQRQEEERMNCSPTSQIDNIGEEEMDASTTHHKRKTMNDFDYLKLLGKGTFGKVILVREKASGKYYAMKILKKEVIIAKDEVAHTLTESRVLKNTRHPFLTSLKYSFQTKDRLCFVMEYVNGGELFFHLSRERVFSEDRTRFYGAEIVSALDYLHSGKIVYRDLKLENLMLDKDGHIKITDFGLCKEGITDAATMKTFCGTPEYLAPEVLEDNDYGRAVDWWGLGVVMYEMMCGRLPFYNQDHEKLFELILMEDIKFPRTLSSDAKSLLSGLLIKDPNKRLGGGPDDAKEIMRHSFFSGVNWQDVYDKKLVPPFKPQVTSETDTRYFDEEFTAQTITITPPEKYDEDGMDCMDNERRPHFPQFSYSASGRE
# MDA-MB-231 [23] = assay: Induction of apoptosis in human MDA-MB-231 cells assessed as late apoptotic cells at 300 nM incubated for 48 hrs by Annexin V-PE staining based flow cytometric analysis (reference value: 0.32 to 0.82%); assay type: functional
# MDA-MB-231 [24] = assay: Induction of apoptosis in human MDA-MB-231 cells assessed as viable cells at 300 nM incubated for 48 hrs by Annexin V-PE staining based flow cytometric analysis (reference value: 92.59 to 92.71%); assay type: functional; conditions: read-out: Activity
# MDA-MB-231 [25] = assay: Induction of cell cycle arrest in human MDA-MB-231 cells assessed as S phase cells at 33.3 nM incubated for 24 hrs by PI staining based flow cytometric analysis (reference value: 9.64 to 10.79%); assay type: functional
# MDA-MB-231 [26] = assay: Induction of apoptosis in human MDA-MB-231 cells assessed as early apoptotic cells at 33.3 nM incubated for 48 hrs by Annexin V-PE staining based flow cytometric analysis (reference value: 3.95 to 3.74%); assay type: functional
# MDA-MB-231 [27] = assay: Induction of cell cycle arrest in human MDA-MB-231 cells assessed as G0/G1 phase cells at 100 nM incubated for 24 hrs by PI staining based flow cytometric analysis (reference value: 63.32 to 64.94%); assay type: functional
# [28] = target: ALK tyrosine kinase receptor (Homo sapiens, UniProt Q9UM73); assay: Inhibition of ALK (unknown origin)
# ALK tyrosine kinase receptor, sequence (Q9UM73 whole entry): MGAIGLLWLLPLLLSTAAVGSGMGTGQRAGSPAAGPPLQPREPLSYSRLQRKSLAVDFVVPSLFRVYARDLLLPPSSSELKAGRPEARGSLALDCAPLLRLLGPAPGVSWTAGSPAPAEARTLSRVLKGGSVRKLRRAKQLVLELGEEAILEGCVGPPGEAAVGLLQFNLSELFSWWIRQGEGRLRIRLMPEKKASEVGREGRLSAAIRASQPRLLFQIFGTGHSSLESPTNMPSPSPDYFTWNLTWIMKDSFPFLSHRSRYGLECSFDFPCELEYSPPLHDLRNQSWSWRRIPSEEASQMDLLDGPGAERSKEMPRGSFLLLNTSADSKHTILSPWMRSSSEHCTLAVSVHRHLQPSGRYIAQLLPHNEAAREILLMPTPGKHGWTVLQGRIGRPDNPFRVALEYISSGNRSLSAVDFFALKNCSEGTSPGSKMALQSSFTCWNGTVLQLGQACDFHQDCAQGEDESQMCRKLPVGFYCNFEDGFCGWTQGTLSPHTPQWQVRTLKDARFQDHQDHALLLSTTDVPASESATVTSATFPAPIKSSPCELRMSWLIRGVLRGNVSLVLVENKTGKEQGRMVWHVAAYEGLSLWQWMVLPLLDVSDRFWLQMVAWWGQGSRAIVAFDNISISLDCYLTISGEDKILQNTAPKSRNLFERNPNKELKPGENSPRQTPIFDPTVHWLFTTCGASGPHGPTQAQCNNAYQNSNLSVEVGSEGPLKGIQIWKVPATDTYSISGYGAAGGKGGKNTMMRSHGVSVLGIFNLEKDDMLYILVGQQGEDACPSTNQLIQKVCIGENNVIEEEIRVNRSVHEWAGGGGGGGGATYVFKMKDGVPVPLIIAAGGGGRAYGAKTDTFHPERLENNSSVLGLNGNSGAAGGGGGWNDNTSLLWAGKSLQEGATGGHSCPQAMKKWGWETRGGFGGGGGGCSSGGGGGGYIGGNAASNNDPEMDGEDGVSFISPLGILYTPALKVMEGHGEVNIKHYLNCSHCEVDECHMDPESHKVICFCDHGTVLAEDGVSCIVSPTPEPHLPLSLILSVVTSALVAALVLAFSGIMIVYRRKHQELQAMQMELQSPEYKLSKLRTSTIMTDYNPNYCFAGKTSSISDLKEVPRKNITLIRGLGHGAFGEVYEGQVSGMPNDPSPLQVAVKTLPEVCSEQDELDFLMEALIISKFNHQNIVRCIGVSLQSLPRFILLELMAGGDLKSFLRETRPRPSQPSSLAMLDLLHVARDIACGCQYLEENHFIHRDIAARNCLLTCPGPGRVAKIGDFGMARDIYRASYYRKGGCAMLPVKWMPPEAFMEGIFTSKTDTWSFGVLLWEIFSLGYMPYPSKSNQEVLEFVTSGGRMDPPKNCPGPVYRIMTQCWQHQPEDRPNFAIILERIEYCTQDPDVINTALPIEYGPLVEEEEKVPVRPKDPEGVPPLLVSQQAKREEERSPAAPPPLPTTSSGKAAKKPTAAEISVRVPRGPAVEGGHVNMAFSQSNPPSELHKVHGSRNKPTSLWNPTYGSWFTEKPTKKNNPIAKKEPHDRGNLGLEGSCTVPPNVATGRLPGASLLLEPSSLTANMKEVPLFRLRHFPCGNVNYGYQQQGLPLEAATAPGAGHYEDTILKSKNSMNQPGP
# MDA-MB-231 [29] = assay: Induction of cell cycle arrest in human MDA-MB-231 cells assessed as accumulation of cell at G2/M phase at 33.3 nM incubated for 24 hrs by PI staining based flow cytometric analysis (reference value: 24.34 to 24.44%); assay type: functional
# MDA-MB-231 [30] = assay: Induction of apoptosis in human MDA-MB-231 cells assessed as late apoptotic cells at 33.3 nM incubated for 48 hrs by Annexin V-PE staining based flow cytometric analysis (reference value: 0.32 to 0.82%); assay type: functional
# MDA-MB-231 [31] = assay: Induction of cell cycle arrest in human MDA-MB-231 cells assessed as S phase cells at 300 nM incubated for 24 hrs by PI staining based flow cytometric analysis (reference value: 9.64 to 10.79%); assay type: functional
smiles,measurement,setting,value
CC(=O)O[C@H]1C(=O)[C@@]2(C)[C@H]([C@H](OC(=O)c3ccccc3)[C@]3(O)C[C@H](OC(=O)[C@H](O)[C@@H](NC(=O)c4ccccc4)c4ccccc4)C(C)=C1C3(C)C)[C@]1(OC(C)=O)CO[C@@H]1C[C@@H]2O [PACLITAXEL],pIC50,[1],< 5.30
same,Activity,Homo sapiens,inactive
CCc1ccc2c(c1)c(=O)c(C(=O)Nc1ccc(Oc3ncnc4cc(OC)c(OC)cc34)c(F)c1)c(C)n2C,Activity,MDA-MB-231 [2],1.8%
same,Activity,MDA-MB-231 [3],24.87%
same,pIC50,MDA-MB-453,< 5.30
same,inhibition,MDA-MB-231 [4],Active
same,Activity,MDA-MB-231 [5],61.26%
same,Activity,MDA-MB-231 [6],27.64%
same,Activity,MDA-MB-231 [7],56.88%
same,Activity,MDA-MB-231 [8],16.56%
same,inhibition,MDA-MB-231 [9],inactive
same,viability at 0.0333 µM,MDA-MB-231 [10],94.9%
same,Activity,MDA-MB-231 [11],1.66%
same,Activity,MDA-MB-231 [12],inactive
same,Activity,MDA-MB-231 [13],inactive
same,Activity,MDA-MB-231 [14],inactive
same,Activity,MDA-MB-231 [15],3.02%
same,Activity,MDA-MB-231 [16],0.41%
same,pIC50,MDA-MB-231 [17],< 5.30
same,Activity,MDA-MB-231 [18],3.11%
same,Activity,MDA-MB-231 [19],inactive
same,viability at 0.1 µM,MDA-MB-231 [20],94.6%
same,Activity,MDA-MB-231 [21],1.99%
same,pIC50,MDA-MB-436,< 5.30
same,inhibition,[22],inactive
same,Activity,MDA-MB-231 [23],0.15%
same,viability at 0.3 µM,MDA-MB-231 [24],95.1%
same,Activity,MDA-MB-231 [25],12.03%
same,Activity,MDA-MB-231 [26],3.01%
same,Activity,MDA-MB-231 [27],52.76%
same,pIC50,[28],8.31
same,Activity,MDA-MB-231 [29],26.91%
same,Activity,MDA-MB-231 [30],0.29%
same,Activity,MDA-MB-231 [31],9.32%
